Experimental findings from US20250121076A1, “POLYPEPTIDE DRUG CONJUGATE HAVING NOVEL STRUCTURE AND APPLICATION THEREOF” (MEDSHINE DISCOVERY INC., priority 2021, published 2025) are described below.

This assay has as its target T1, Human EphA2 (Homo sapiens, UniProt P29317).
T1 construct: purchased Sino Biological 13926-H08HD
The assay can be described thus: Binding capacity test to EphA2 protein (SPR, Biacore 8K). The procedure:
To detect the affinity of the compound to be tested to the target protein EphA2 using the SPR method.
• Biacore 8K (GE Healthcare). • 96-well Plate (Cat #650101, greiner bio-one) • CM5 chip (Cat #BR-1005-30, GE Healthcare) • Amine Coupling Kit (Cat #BR-1000-50, GE Healthcare) EDC NHS 1 M ethanolamine. • 10 mM sodium acetate pH 4.5 (Cat #BR-1003-50, GE Healthcare) • DMSO (Cat #D4540, Sigma) • P20 (Cat #BR-1000-54, GE Healthcare). • PBS (Cat #BR-1006-72, GE Healthcare). • EphA2 (Cat #13926-H08HD, Sino Biological)
In this experiment, the amino coupling method was used. The target protein EphA2 was directly immobilized on the CM5 chip using Biacore 8K. The compound to be tested as an analyte was then diluted to a required concentration gradient with a buffer (10 mM PBS, pH 7.4, 137 mM NaCl, 2.7 mM KCl, 5% DMSO, and 0.05% P20) for multi-cycle kinetic detection, in which each cycle is formed by 180 seconds of sample injection and 180 seconds of dissociation, and then the next cycle was performed, to obtain kinetic analysis data on the affinity of the target protein EphA2 to the compound to be tested. The final data were subjected to Kinetics fitting analysis based on a 1:1 model using Biacore Insight Evaluation Software (V 2.0.15.12933).
1) Preparation of the buffer: 10 mM PBS, pH 7.4, 137 mM NaCl, 2.7 mM KCl, 5% DMSO, and 0.05% P20.
2) Activation of the CM5 chip: The CM5 chip was activated with 400 mM EDC and 100 mM NHS at a flow rate of 10 μL/min for 420 seconds.
3) Coupling of the target protein: The target protein was diluted to 10 μg/mL with 10 mM sodium acetate (pH 4.5) and coupled at a flow rate of 10 μL/min for 284 s. The 1 #, 2 #, and 3 #channels on the chip were used in the experiment, and the coupling results were 1639.9RU, 1747.8RU, and 1702.2RU, respectively.
4) Blocking of the CM5 chip: The CM5 chip was blocked with 1 M ethanolamine at a flow rate of 10 μL/min for 420 seconds.
5) Analyte concentration: The compound to be tested was diluted with the buffer. The compound to be tested was diluted from 100 nM to 0.78 nM in a 2-fold gradient.
6) Sample injection analysis: Each concentration of the working solution of the compound to be tested corresponded to one cycle, with a flow rate of 30 μL/min for binding for 180 seconds and dissociating for 180 seconds. The last cycle was a 5% DMSO solvent correction cycle. 7) All results were subjected to kinetics fitting analysis based on a 1:1 model.
The experimental data of five effective concentrations of the compounds of the present invention were selected for Kinetics fitting analysis based on a 1:1 model using Biacore Insight Evaluation Software (V 2.0.15.12933).

Structures can show the parent of a compound that is named as a salt. Starred links: 1 amine or outer side, 2 acyl side, 3 side chain; linkers in the order of their positions; H or OH if unused. Positions of bridges follow the written chain, without caps; N, C: chain ends. Non-standard residues stand in square brackets, D forms with d. Residues, ends and D or L forms follow the SMILES beside them. Chains are numbered I, II in the order given. *: point of attachment. TATA = O=C(CC[*:1])N1CN(C(=O)CC[*:2])CN(C(=O)CC[*:3])C1; Dolaproine = CO[C@@H]([C@@H]1CCCN1)[C@@H](C)C(=O)O; Dil = CC[C@H](C)[C@H](NC)[C@@H](CC(=O)O)OC; X2 = O=C(CCCC(=O)[*:2])NCCC(=O)[*:1]; PABC = O=C(OCc1ccc(N[*:1])cc1)[*:2]; X1 = C[C@@H](N*)[C@@H](O)c1ccccc1; Hyp = O=C(O)[C@@H]1C[C@@H](O)CN1; hArg = N=C(N)NCCCC[C@H](N)C(=O)O; Cit = NC(=O)NCCC[C@H](N)C(=O)O; NMeV = CN[C@H](C(=O)O)C(C)C; hCys = N[C@@H](CCS)C(=O)O; Sar = CNCC(=O)O

T1 sequence (P29317 24-534 limits assumed): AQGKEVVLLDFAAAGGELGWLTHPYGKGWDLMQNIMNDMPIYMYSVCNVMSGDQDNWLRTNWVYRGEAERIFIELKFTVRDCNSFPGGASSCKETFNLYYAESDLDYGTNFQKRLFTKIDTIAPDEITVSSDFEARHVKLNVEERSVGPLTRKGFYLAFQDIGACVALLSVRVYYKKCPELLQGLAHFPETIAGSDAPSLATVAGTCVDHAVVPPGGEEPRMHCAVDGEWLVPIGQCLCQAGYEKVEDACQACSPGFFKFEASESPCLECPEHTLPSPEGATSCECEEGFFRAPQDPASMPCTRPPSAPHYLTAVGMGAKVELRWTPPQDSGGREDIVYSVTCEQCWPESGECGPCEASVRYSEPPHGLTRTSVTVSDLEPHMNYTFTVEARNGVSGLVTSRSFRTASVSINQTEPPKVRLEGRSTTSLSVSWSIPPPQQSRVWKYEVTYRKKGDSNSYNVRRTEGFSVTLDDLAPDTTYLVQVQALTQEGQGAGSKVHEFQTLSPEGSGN

The molecule `CC[C@H](C)[C@@H]([C@@H](CC(=O)N1CCC[C@H]1[C@H](OC)[C@@H](C)C(=O)N[C@H](C)[C@@H](O)c1ccccc1)OC)N(C)C(=O)[C@@H](NC(=O)[C@H](C(C)C)N(C)C(=O)OCc1ccc(NC(=O)[C@H](CCCNC(N)=O)NC(=O)[C@@H](NC(=O)CCCC(=O)NCCC(=O)N(C)CC(=O)N(C)CC(=O)N(C)CC(=O)N(C)CC(=O)N(C)CC(=O)N(C)CC(=O)N(C)CC(=O)N(C)CC(=O)N(C)CC(=O)N(C)CC(=O)N[C@H]2CCCCNC(=O)C[C@@H](C(=O)N[C@H]3CSCCC(=O)N4CN5CN(C4)C(=O)CCSC[C@H](NC(=O)[C@H](CC(C)C)NC(=O)[C@@H]4CCCN4C(=O)[C@H](CC(N)=O)NC(=O)[C@H](C(C)C)NC(=O)[C@H](CC(C)C)NC(=O)[C@@H]4C[C@@H](O)CN4C3=O)C(=O)N[C@@H](CC(C)C)C(=O)N[C@@H](Cc3c[nH]cn3)C(=O)N3CCC[C@H]3C(=O)N[C@H](CC(=O)O)C(=O)N[C@@H](Cc3c[nH]c4ccccc34)C(=O)N[C@@H](CCCCNC(=N)N)C(=O)N[C@H](C(N)=O)CCSCCC5=O)NC(=O)[C@H](CCCCNC(=N)N)NC2=O)C(C)C)cc1)C(C)C` [Acetate salt of PDC_5] (I: [Sar][Sar][Sar][Sar][Sar][Sar][Sar][Sar][Sar][Sar]K[hArg]DC[Hyp]LVNPLCLHP[dD]W[hArg][hCys]-NH2 / II: V[Cit][PABC][NMeV]V[Dil][Dolaproine]-X1; lactam I:11-I:13; linker I:14-I:21-I:28 via TATA; linker I:N-II:N via X2) returned a Kd of 6.73 nM.
In the case of `CC[C@H](C)[C@@H]([C@@H](CC(=O)N1CCC[C@H]1[C@H](OC)[C@@H](C)C(=O)N[C@H](C)[C@@H](O)c1ccccc1)OC)N(C)C(=O)[C@@H](NC(=O)[C@H](C(C)C)N(C)C(=O)OCc1ccc(NC(=O)[C@H](CCCNC(N)=O)NC(=O)[C@@H](NC(=O)CCCC(=O)NCCC(=O)N(C)CC(=O)N(C)CC(=O)N(C)CC(=O)N(C)CC(=O)N(C)CC(=O)N(C)CC(=O)N(C)CC(=O)N(C)CC(=O)N(C)CC(=O)N(C)CC(=O)N[C@H]2CCCCNC(=O)C[C@@H](C(=O)N[C@H]3CCSCCC(=O)N4CN5CN(C4)C(=O)CCSC[C@H](NC(=O)[C@H](CC(C)C)NC(=O)[C@@H]4CCCN4C(=O)[C@H](CC(N)=O)NC(=O)[C@H](C(C)C)NC(=O)[C@H](CC(C)C)NC(=O)[C@@H]4C[C@@H](O)CN4C3=O)C(=O)N[C@@H](CC(C)C)C(=O)N[C@@H](Cc3c[nH]cn3)C(=O)N3CCC[C@H]3C(=O)N[C@H](CC(=O)O)C(=O)N[C@@H](Cc3c[nH]c4ccccc34)C(=O)N[C@@H](CCCCNC(=N)N)C(=O)N[C@H](C(N)=O)CSCCC5=O)NC(=O)[C@H](CCCCNC(=N)N)NC2=O)C(C)C)cc1)C(C)C` [Acetate salt of PDC_6] (I: [Sar][Sar][Sar][Sar][Sar][Sar][Sar][Sar][Sar][Sar]K[hArg]D[hCys][Hyp]LVNPLCLHP[dD]W[hArg]C-NH2 / II: V[Cit][PABC][NMeV]V[Dil][Dolaproine]-X1; lactam I:11-I:13; linker I:14-I:21-I:28 via TATA; linker I:N-II:N via X2) it was 5.67 nM.

One may read the Kd as the equilibrium constant for the complex coming apart. Higher therefore signals a looser complex.
